# Assay results taken from patent US20100215759A1 (priority 2009, published 2010).
# Columns and labels:
# old DBA/2J mice = experiment: Reduction of intraocular pressure (IOP) after application to the eye, TONOLab tonometer; format: in vivo; conditions: versus basal IOP
# Text: The main risk factor in the glaucoma is represented by the high intraocular pressure (IOP). See for instance: Libby R. T. et al., Vis Neurosci. 2005 Sep.-Oct., 22(5):637-48 and Tomida I. et al., Br. J. Opthalmol. 2004 May, 88(5):708-13.
# By using the animal model of old DBA/2J mice (see above) it has been evaluated the efficacy of the compound obtained in example 3.1 in reducing the IOP. As said, this compound has a good affinity towards the CB1 receptors in vitro (example 4) and a CB1 agonist action in vivo (example 5). The intraocular pressure has been determined by a TONOLab Tonometer (Tiolat Oy), as reported by M. E. Pease et al. in J. Glaucoma, 2006 December, 15(6):512-519. The compound was dispersed in the commercial emulsion Tocrisolve™, (Tocris), at a concentration of […] and applied to the eye of old DBA/2J mice (8-10 month age; basal IOP comprised between 19.0 and 22.5 mmHg). The applied emulsion volumes were such that the compound doses resulted, respectively, of 100 μg or 50 μg. WIN 55212-2 was dispersed in Tocrisolve™at the concentration of 5 mg/ml and was the reference cannabinoidergic compound. The determination of the ocular pressure was carried out every 30 minutes up to two hours starting from the administration. The obtained results (average of 6 measurements at each time for experimental groups of 8-10 animals for group/dose) are reported in Table 3. IOP decrease was expressed in percent with respect to the basal value.
# men = conditions: local administration in the eye; cited from earlier work
compound,measurement,setting,value
Cc1c(C(=O)c2cccc3ccccc23)c2cccc3c2n1[C@H](CN1CCOCC1)CO3 [WIN 55212-2],Intraocular Pressure Decrease,"old DBA/2J mice; 50 μg to the eye in Tocrisolve, 30 minutes",4.3%
same,Intraocular Pressure Decrease,"old DBA/2J mice; 50 μg to the eye in Tocrisolve, 60 minutes",3.0%
same,Intraocular Pressure Decrease,"old DBA/2J mice; 50 μg to the eye in Tocrisolve, 90 minutes",2.0%
same,Intraocular Pressure Decrease,"old DBA/2J mice; 50 μg to the eye in Tocrisolve, 120 minutes",1.9%
same,Intraocular Pressure Decrease,"old DBA/2J mice; 100 μg to the eye in Tocrisolve, 30 minutes",23.1%
same,Intraocular Pressure Decrease,"old DBA/2J mice; 100 μg to the eye in Tocrisolve, 60 minutes",21.3%
same,Intraocular Pressure Decrease,"old DBA/2J mice; 100 μg to the eye in Tocrisolve, 90 minutes",18.1%
same,Intraocular Pressure Decrease,"old DBA/2J mice; 100 μg to the eye in Tocrisolve, 120 minutes",13.2%
same,IOP reduction in men,men,significant IOP reduction
